According to US20230158151A1 (NURIX THERAPEUTICS, INC., priority 2021, published 2023):

Molecular target: T1, ITK (Mus musculus, UniProt Q03526)
T1 construct: administered to mice orally; from tissue; host or cells: mouse splenocytes (spleen) after oral dosing
T1 sequence (Q03526 1-625): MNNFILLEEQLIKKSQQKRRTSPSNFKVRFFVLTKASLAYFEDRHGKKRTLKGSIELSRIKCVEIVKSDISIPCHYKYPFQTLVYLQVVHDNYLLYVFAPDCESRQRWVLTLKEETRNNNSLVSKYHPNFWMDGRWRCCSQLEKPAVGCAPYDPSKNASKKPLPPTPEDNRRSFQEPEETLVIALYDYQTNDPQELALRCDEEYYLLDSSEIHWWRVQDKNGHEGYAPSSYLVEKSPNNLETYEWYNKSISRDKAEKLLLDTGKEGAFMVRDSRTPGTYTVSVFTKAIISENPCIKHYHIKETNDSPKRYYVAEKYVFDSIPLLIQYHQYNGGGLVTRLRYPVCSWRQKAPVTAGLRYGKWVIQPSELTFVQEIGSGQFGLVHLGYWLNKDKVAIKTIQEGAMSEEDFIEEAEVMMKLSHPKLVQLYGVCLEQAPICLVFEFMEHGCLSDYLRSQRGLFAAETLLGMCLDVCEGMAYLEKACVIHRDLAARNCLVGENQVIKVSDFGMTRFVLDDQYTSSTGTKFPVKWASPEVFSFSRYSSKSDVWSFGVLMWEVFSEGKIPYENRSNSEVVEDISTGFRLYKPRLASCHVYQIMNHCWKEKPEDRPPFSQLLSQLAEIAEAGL
Test: Western Assay for ITK Degradation in Mouse Splenocytes after oral administration
Format: in vivo
Conditions: for ITK (%) 90 mpk PO, 6 h / ITK (%) 60 mpk PO, 24 h: % ITK remaining in mouse splenocytes; for ITK degradation in vivo by Western blotting: mouse splenocytes, oral
Protocol: Compounds 30 and 31 were administered to mice orally. After 6 hours, splenocytes cells were harvested. ITK was evaluated by Western blotting. Media was removed and cell pellets were lysed in 100 μL lysis buffer (RIPA buffer (Fisher, PI89901), cOmplete Mini EDTA-free protease inhibitor (Sigma 11836170001), Protease Inhibitor Cocktail (Sigma, P2714), Phosphatase Inhibitor Cocktail 2 and 3 (Sigma, P5726 and P0044), Benzonase (Sigma, E1014)). Cells were lysed overnight at −20° C. Following thaw, cells were centrifuged for 10 min at 13000 rpm, then transferred to new tube. Protein levels were determined by BCA Assay performed according to manufacturer's protocol (EMD Millipore, cat. no. 71285-3). Samples were combined with (4×) LDS Sample Buffer and (10×) Reducing Agent and H2O to equally load 20 μg protein per lane of a 26-well NuPAGE 4-12% Bis-Tris protein gel (1.0 mm, Thermo cat. no. NP0326). Samples were separated by running gels at constant 150 V in NuPAGE MES SDS Running Buffer. Following electrophoresis, proteins were transferred to nitrocellulose membranes using an iBlot Gel Transfer Device and iBlot Gel Transfer Stacks (Thermo cat. no. IB21001 and IB301001) and transfer method P3 (20V for 7 min). Membranes were blocked for 1 hr in 5% milk solution (TBS (0.2% Tween-20)). Following blocking, membranes were incubated with primary antibody (1:1000 CST ITK (2F12) #2380) overnight at 4° C. with gentle shaking. Blots were washed 2× in TBS (0.2% Tween-20), 30 min per wash. Following washes, blots were incubated in secondary HRP-conjugated antibody (Promega anti-Mouse IgG (H+L) HRP cat. no. W4021), 1:5000 in 5% milk solution (TBS (0.2% Tween-20)), for 1 hr at room temperature with gentle shaking. Blots were washed 2× in TBS (0.2% Tween-20), 30 min per wash. Blots were incubated with 1:1 mix of ECL reagents 1 & 2 (Amersham ECL Western Blotting Detection Reagent, cat. no. RPN2106) for 2 min at room temperature. Bands were visualized using a Protein Simple imager. Blots were then re-probed with a combination of anti-actin antibody (Sigma Monoclonal Mouse Anti-β-Actin (clone AC-15), cat. no. A5441) and secondary HRP-conjugated antibody (Promega anti-Mouse IgG (H+L) HRP, cat. no. W4021) and similar steps were taken for incubation, wash, detection and visualization steps as above. The data was analyzed using Alpha View software. The densitometric reading for each sample band was normalized to that of the corresponding actin band per lane. Approximate % ITK remaining per sample was calculated as follows: […]
Once % ITK remaining has been calculated for each sample, groups are averaged together to show an means % ITK normalized to actin and relative to control.
Compounds 30 and 29 were administered to mice orally. After 6 hours or 24 hours, splenocytes cells were harvested. ITK was evaluated by Western blotting. Plasma concentrations were determined by LC/MS/MS. Plasma samples were protein precipitated by addition of 100 μl of acetonitrile containing 50 ng/ml of internal standard. The resulting mixture was vortexed and centrifuged at 4000 RPM for 5 minutes. An aliquot of the resultant supernatant (75 μl) was added to 75 μl of 0.1% formic acid in water to constitute the final sample for injection. Samples were injected on a Shimadzu Exion LC Binary Gradient AD Pump HLPC system connected to a Sciex QTRAP 6500+ mass spectrometer. Five μl of sample was injected onto a Waters Acquity UPLC BEH C18 column 130A (2.1×30 mm, […]) at 40° C. utilizing a flow rate of 700 μl/minute. Mobile Phase A was 0.1% formic acid in water and mobile phase B was 0.1% formic acid in acetonitrile. A linear gradient of 15-95% B over 1.0 minute was used. The mass spectrometer was operated in positive ion electrospray mode with multiple reaction monitoring for maximum sensitivity. Sciex Analyst software (version 1.6.3) was used for LC/MS/MS instrument control and acquisition. […]

Row | Structure (SMILES) | ITK (%) 90 mpk PO, 6 h [%] | also measured
1 | CN(C(=O)CCC1CCN(c2ccc(C3CCC(=O)NC3=O)cn2)CC1)c1ccc2cc(-c3n[nH]c4c3C[C@@H]3C(F)(F)[C@]3(C)C4)[nH]c2c1 (stereo partly drawn) [Compound 4, N-(2-((4aS,5aR)-5,5-difluoro-5a-methyl-1,4,4a,5,5a,6-hexahydrocyclopropa[f]indazol-3-yl)-1H-indol-6-yl)-3-(1-(5-(2,6-dioxopiperidin-3-yl)pyridin-2-yl)piperidin-4-yl)-N-methylpropanamide] | 76 | 
2 | CN(C(=O)CC1CCN(CC2CCN(c3ccc(C4CCC(=O)NC4=O)cn3)CC2)CC1)c1ccc2cc(-c3n[nH]c4c3C[C@@H]3C(F)(F)[C@]3(C)C4)[nH]c2c1 (stereo partly drawn) [Compound 6, N-(2-((4aS,5aR)-5,5-difluoro-5a-methyl-1,4,4a,5,5a,6-hexahydrocyclopropa[f]indazol-3-yl)-1H-indol-6-yl)-2-(1-((1-(5-(2,6-dioxopiperidin-3-yl)pyridin-2-yl)piperidin-4-yl)methyl)piperidin-4-yl)-N-methylacetamide] | 92 | 
3 | C[C@@]12Cc3[nH]nc(C(=O)Nc4cnn(CC5CN(C(=O)C6CCN(c7ccc(C8CCC(=O)NC8=O)cn7)CC6)C5)c4)c3C[C@@H]1C2(F)F (stereo partly drawn) [Compound 22, (4aS,5aR)—N-(1-((1-(1-(5-(2,6-dioxopiperidin-3-yl)pyridin-2-yl)piperidine-4-carbonyl)azetidin-3-yl)methyl)-1H-pyrazol-4-yl)-5,5-difluoro-5a-methyl-1,4,4a,5,5a,6-hexahydrocyclopropa[f]indazole-3-carboxamide] | 113 | 
4 | C[C@@]12Cc3[nH]nc(C(=O)Nc4cnn(CC5CN(C(=O)C6CN(c7ccc(C8CCC(=O)NC8=O)cn7)C6)C5)c4)c3C[C@@H]1C2(F)F (stereo partly drawn) [Compound 23, (4aS,5aR)—N-(1-((1-(1-(5-(2,6-dioxopiperidin-3-yl)pyridin-2-yl)azetidine-3-carbonyl)azetidin-3-yl)methyl)-1H-pyrazol-4-yl)-5,5-difluoro-5a-methyl-1,4,4a,5,5a,6-hexahydrocyclopropa[f]indazole-3-carboxamide] | 129 | 
5 | CC1(C)CCc2c(-c3cc4ccc(N5CCC6(CCN(CC7CCN(c8ccc(C9CCC(=O)NC9=O)cn8)CC7)CC6)C5=O)cc4[nH]3)n[nH]c2C1 (stereo not shown) [Compound 24, 3-(6-(4-((2-(2-(6,6-dimethyl-4,5,6,7-tetrahydro-1H-indazol-3-yl)-1H-indol-6-yl)-1-oxo-2,8-diazaspiro[4.5]decan-8-yl)methyl)piperidin-1-yl)pyridin-3-yl)piperidine-2,6-dione] | 45 | 
6 | CC1(C)CCc2c(-c3cc4ccc(C(=O)N5CCN(CC6CCN(c7ccc(C8CCC(=O)NC8=O)cn7)CC6)CC5)cc4[nH]3)n[nH]c2C1 (stereo not shown) [Compound 26, 3-(6-(4-((4-(2-(6,6-dimethyl-4,5,6,7-tetrahydro-1H-indazol-3-yl)-1H-indole-6-carbonyl)piperazin-1-yl)methyl)piperidin-1-yl)pyridin-3-yl)piperidine-2,6-dione] | 11 | 
7 | C[C@@]12Cc3[nH]nc(-c4cc5ccc(N6CCC7(CCN(CC8CCN(c9ccc(C%10CCC(=O)NC%10=O)cn9)CC8)CC7)C6=O)cc5[nH]4)c3C[C@@H]1C2(F)F (stereo partly drawn) [Compound 28, 3-(6-(4-((2-(2-((4aS,5aR)-5,5-difluoro-5a-methyl-1,4,4a,5,5a,6-hexahydrocyclopropa[f]indazol-3-yl)-1H-indol-6-yl)-1-oxo-2,8-diazaspiro[4.5]decan-8-yl)methyl)piperidin-1-yl)pyridin-3-yl)piperidine-2,6-dione] | 8 | 
8 | C[C@@H](C(=O)N(C)c1ccc2cc(-c3n[nH]c4c3C[C@@H]3C(F)(F)[C@]3(C)C4)[nH]c2c1)N1CCN(CC2CCN(c3ccc(N4CCC(=O)NC4=O)cn3)CC2)CC1 [Compound 29, (S)—N-(2-((4aS,5aR)-5,5-difluoro-5a-methyl-1,4,4a,5,5a,6-hexahydrocyclopropa[f]indazol-3-yl)-1H-indol-6-yl)-2-(4-((1-(5-(2,4-dioxotetrahydropyrimidin-1(2H)-yl)pyridin-2-yl)piperidin-4-yl)methyl)piperazin-1-yl)-N-methylpropanamide] | 14 | ITK degradation in vivo by Western blotting (6 hours): degraded ITK in vivo; ITK degradation in vivo by Western blotting (24 hours): degraded ITK
9 | C[C@@H](C(=O)N(C)c1ccc2cc(-c3n[nH]c4c3CCC(C)(C)C4)[nH]c2c1)N1CCN(CC2CCN(c3ccc(N4CCC(=O)NC4=O)cn3)CC2)CC1 [Compound 31, (S)—N-(2-(6,6-dimethyl-4,5,6,7-tetrahydro-1H-indazol-3-yl)-1H-indol-6-yl)-2-(4-((1-(5-(2,4-dioxotetrahydropyrimidin-1(2H)-yl)pyridin-2-yl)piperidin-4-yl)methyl)piperazin-1-yl)-N-methylpropanamide] | 116 | ITK degradation in vivo by Western blotting (6 hours): degraded ITK in vivo; ITK degradation in vivo by Western blotting (24 hours): degraded ITK in vivo
10 | C[C@@H](C(=O)N(C)c1ccc2cc(-c3n[nH]c4c3CCC(C)(C)C4)[nH]c2c1)N1CCN(CC2CCN(c3ccc(C4CCC(=O)NC4=O)cn3)CC2)CC1 (stereo partly drawn) [Compound 32, (2S)—N-(2-(6,6-dimethyl-4,5,6,7-tetrahydro-1H-indazol-3-yl)-1H-indol-6-yl)-2-(4-((1-(5-(2,6-dioxopiperidin-3-yl)pyridin-2-yl)piperidin-4-yl)methyl)piperazin-1-yl)-N-methylpropanamide] | 11 | 
11 | CC1(C)CCc2c(-c3cc4ccc(C(=O)N5CCC(CN6CCN(c7ccc(C8CCC(=O)NC8=O)nc7)CC6)CC5)cc4[nH]3)n[nH]c2C1 (stereo not shown) [Compound 35, 3-(5-(4-((1-(2-(6,6-dimethyl-4,5,6,7-tetrahydro-1H-indazol-3-yl)-1H-indole-6-carbonyl)piperidin-4-yl)methyl)piperazin-1-yl)pyridin-2-yl)piperidine-2,6-dione] |  | ITK (%) 60 mpk PO, 24 h: >100%
12 | CC1(C)CCc2c(-c3cc4ccc(C(=O)N5CCC(CN6CCN(c7ccc(C8CCC(=O)NC8=O)cc7)CC6)CC5)cc4[nH]3)n[nH]c2C1 (stereo not shown) [Compound 37, 3-(4-(4-((1-(2-(6,6-dimethyl-4,5,6,7-tetrahydro-1H-indazol-3-yl)-1H-indole-6-carbonyl)piperidin-4-yl)methyl)piperazin-1-yl)phenyl)piperidine-2,6-dione] |  | ITK (%) 60 mpk PO, 24 h: >100%
